Measurements taken from US11655225B2, “Antimycobacterial heterocyclic amides” (Crestone, Inc., priority 2018, dated 2023).
Converted amounts (≈) assume the structure as drawn.

tested on: M. abscessus; assay: MIC determination, CLSI M24-A; type: cell-based; settings: Mycobacteroides abscessus, CLSI M24-A

**Q.** How did the MIC turn out when `CC12CC3CC(C)(C1)CC(C(=O)Nc1nc4ccc(F)cc4s1)(C3)C2` [Example 123, N-(6-fluoro-1,3-benzothiazol-2-yl)-3,5-dimethyladamantane-1-carboxamide] was run?
**A.** 2 to 32 µg/mL (≈ 5.58 to 89.3 µM)

**Q.** With `CC1CC(C(=O)Nc2nc3c(F)cc(F)cc3o2)CC(C)(C)C1` (stereo not shown) [Example 189, N-(4,6-difluoro-1,3-benzoxazol-2-yl)-3,3,5-trimethylcyclohexane-1-carboxamide] as the compound, how does the MIC read?
**A.** 2 to 32 µg/mL (≈ 6.2 to 99.3 µM)

**Q.** `CC1CCCC(C(=O)Nc2nc3ccc(F)cc3s2)C1` (stereo not shown) [Example 170, N-(6-fluoro-1,3-benzothiazol-2-yl)-3-methylcyclohexane-1-carboxamide] was tested. Which MIC did it give?
**A.** 2 to 32 µg/mL (≈ 6.84 to 109 µM)

**Q.** Which MIC does the source give for `CC12CCCC(C(=O)Nc3nc4cc(Cl)cc(Cl)c4o3)(CCC1)C2` [Example 184, N-(5,7-dichloro-1,3-benzoxazol-2-yl)-5-methylbicyclo[3.3.1]nonane-1-carboxamide] here?
**A.** 2 to 32 µg/mL (≈ 5.45 to 87.1 µM)

**Q.** How did the MIC turn out when `CC12CC3CC(C)(C1)CC(C(=O)Nc1nc4c(F)cccc4o1)(C3)C2` [Example 144, N-(4-fluoro-1,3-benzoxazol-2-yl)-3,5-dimethyladamantane-1-carboxamide] was run?
**A.** 2 to 32 µg/mL (≈ 5.84 to 93.5 µM)

**Q.** Which MIC does the source give for `O=C(Nc1nc2ccc(Cl)cc2s1)C1CCCCCCC1` [Example 110, N-(6-chloro-1,3-benzothiazol-2-yl)cyclooctanecarboxamide] here?
**A.** 2 to 32 µg/mL (≈ 6.19 to 99.1 µM)

**Q.** With `O=C(Nc1nc2ccc(Cl)cc2s1)C12CC3CC(CC(C3)C1)C2` [Example 107, N-(6-chloro-1,3-benzothiazol-2-yl)adamantane-1-carboxamide] as the compound, how does the MIC read?
**A.** 2 to 32 µg/mL (≈ 5.77 to 92.3 µM)

**Q.** How did the MIC turn out when `CC1CC(C(=O)Nc2nc3cc(Cl)c(Cl)cc3o2)CC(C)(C)C1` (stereo not shown) [Example 113, N-(5,6-dichloro-1,3-benzoxazol-2-yl)-3,3,5-trimethylcyclohexane-1-carboxamide] was run?
**A.** 2 to 32 µg/mL (≈ 5.63 to 90.1 µM)

**Q.** Which MIC does the source give for `O=C(Nc1nc2c(F)c(F)c(F)cc2s1)C1CCCCCCC1` [Example 116, N-(4,5,6-trifluoro-1,3-benzothiazol-2-yl)cyclooctanecarboxamide] here?
**A.** 2 to 32 µg/mL (≈ 5.84 to 93.5 µM)

**Q.** Which MIC does the source give for `CC1CC(C(=O)Nc2nc3ccc(Cl)cc3o2)CC(C)(C)C1` (stereo not shown) [Example 118, N-(6-chloro-1,3-benzoxazol-2-yl)-3,3,5-trimethylcyclohexane-1-carboxamide] here?
**A.** 2 to 32 µg/mL (≈ 6.23 to 99.7 µM)

**Q.** With `O=C(Nc1nc2ccc(OC(F)(F)F)cc2s1)C1CCCC1` [Example 130, N-[6-(trifluoromethoxy)-1,3-benzothiazol-2-yl]cyclopentanecarboxamide] as the compound, how does the MIC read?
**A.** 2 to 32 µg/mL (≈ 6.05 to 96.9 µM)

**Q.** `CC1CCCC(C(=O)Nc2nc3ccc(Cl)cc3s2)C1` (stereo not shown) [Example 168, N-(6-chloro-1,3-benzothiazol-2-yl)-3-methylcyclohexane-1-carboxamide] was tested. Which MIC did it give?
**A.** 2 to 32 µg/mL (≈ 6.48 to 104 µM)

**Q.** `CC1CC(C(=O)Nc2nc3ccccc3s2)CC(C)(C)C1` (stereo not shown) [Example 125, N-(1,3-benzothiazol-2-yl)-3,3,5-trimethylcyclohexane-1-carboxamide] was tested. Which MIC did it give?
**A.** 2 to 32 µg/mL (≈ 6.61 to 106 µM)

**Q.** Which MIC does the source give for `CC1CC(C(=O)Nc2nc3cc(Cl)c(Cl)cc3[nH]2)CC(C)(C)C1` (stereo not shown) [Example 151, N-(5,6-dichloro-1H-1,3-benzodiazol-2-yl)-3,3,5-trimethylcyclohexane-1-carboxamide] here?
**A.** 2 to 32 µg/mL (≈ 5.65 to 90.3 µM)

**Q.** For `CC1(C(=O)Nc2nc3ccc(Br)cc3s2)CCCCC1` [Example 134, N-(6-bromo-1,3-benzothiazol-2-yl)-1-methylcyclohexane-1-carboxamide], which MIC is on record?
**A.** 2 to 32 µg/mL (≈ 5.66 to 90.6 µM)

**Q.** Which MIC does the source give for `COC1CCCC(C(=O)Nc2nc3ccc(Cl)cc3s2)C1` (stereo not shown) [Example 191, N-(6-chloro-1,3-benzothiazol-2-yl)-3-methoxycyclohexane-1-carboxamide] here?
**A.** 2 to 32 µg/mL (≈ 6.16 to 98.5 µM)

**Q.** With `CC1(C(=O)Nc2nc3ccc(OC(F)F)cc3s2)CCCCC1` [Example 172, N-[6-(difluoromethoxy)-1,3-benzothiazol-2-yl]-1-methylcyclohexane-1-carboxamide] as the compound, how does the MIC read?
**A.** 2 to 32 µg/mL (≈ 5.88 to 94 µM)

**Q.** `Cc1cc(C)c2oc(NC(=O)C3CC(C)CC(C)(C)C3)nc2c1` (stereo not shown) [Example 143, N-(5,7-dimethyl-1,3-benzoxazol-2-yl)-3,3,5-trimethylcyclohexane-1-carboxamide] was tested. Which MIC did it give?
**A.** 2 to 32 µg/mL (≈ 6.36 to 102 µM)

**Q.** Which MIC does the source give for `CC12CC3CC(C)(C1)CC(C(=O)Nc1nc4ccc(C(F)(F)F)cc4o1)(C3)C2` [Example 150, 3,5-dimethyl-N-[6-(trifluoromethyl)-1,3-benzoxazol-2-yl]adamantane-1-carboxamide] here?
**A.** 2 to 32 µg/mL (≈ 5.1 to 81.5 µM)

**Q.** For `CC12CC3CC(C)(C1)CC(C(=O)Nc1nc4cc(Cl)c(Cl)cc4o1)(C3)C2` [Example 112, N-(5,6-dichloro-1,3-benzoxazol-2-yl)-3,5-dimethyladamantane-1-carboxamide], which MIC is on record?
**A.** 2 to 32 µg/mL (≈ 5.08 to 81.4 µM)

**Q.** How did the MIC turn out when `CC1CCCC(NC(=O)Nc2nc3ccc(C(F)(F)F)cc3s2)C1` (stereo not shown) [Example 149, 1-(3-methylcyclohexyl)-3-[6-(trifluoromethyl)-1,3-benzothiazol-2-yl]urea] was run?
**A.** 2 to 32 µg/mL (≈ 5.6 to 89.5 µM)

**Q.** `O=C(Nc1nc2ccc(C(F)(F)F)cc2s1)C1CCCC2(CC2)C1` (stereo not shown) [Example 148, N-[6-(trifluoromethyl)-1,3-benzothiazol-2-yl]spiro[2.5]octane-5-carboxamide] was tested. Which MIC did it give?
**A.** 2 to 32 µg/mL (≈ 5.64 to 90.3 µM)

**Q.** How did the MIC turn out when `CC(C)(C)C(=O)Nc1nc2ccc(OC(F)(F)F)cc2s1` [Example 173, 2,2-dimethyl-N-[6-(trifluoromethoxy)-1,3-benzothiazol-2-yl]propanamide] was run?
**A.** 2 to 32 µg/mL (≈ 6.28 to 101 µM)

**Q.** For `CC1CC(C(=O)Nc2nc3ccc(F)cc3[nH]2)CC(C)(C)C1` (stereo not shown) [Example 178, N-(6-fluoro-1H-1,3-benzodiazol-2-yl)-3,3,5-trimethylcyclohexane-1-carboxamide], which MIC is on record?
**A.** 2 to 32 µg/mL (≈ 6.59 to 105 µM)

**Q.** Which MIC does the source give for `CC1(C(=O)Nc2nc3cc(Br)ccc3s2)CCCC1` [Example 153, N-(5-bromo-1,3-benzothiazol-2-yl)-1-methylcyclopentane-1-carboxamide] here?
**A.** 2 to 32 µg/mL (≈ 5.9 to 94.3 µM)

**Q.** Which MIC does the source give for `CC12CC3CC(C)(C1)CC(C(=O)Nc1nc4ccc(Cl)cc4o1)(C3)C2` [Example 117, N-(6-chloro-1,3-benzoxazol-2-yl)-3,5-dimethyladamantane-1-carboxamide] here?
**A.** 2 to 32 µg/mL (≈ 5.57 to 89.2 µM)

**Q.** For `CC1CC(C(=O)Nc2nc3cccc(O)c3s2)CC(C)(C)C1` (stereo not shown) [Example 174, N-(7-hydroxy-1,3-benzothiazol-2-yl)-3,3,5-trimethylcyclohexane-1-carboxamide], which MIC is on record?
**A.** 2 to 32 µg/mL (≈ 6.28 to 100 µM)

**Q.** `CC1CC(C(=O)Nc2nc3ccc(N(C)C)cc3s2)CC(C)(C)C1` (stereo not shown) [Example 186, N-[6-(dimethylamino)-1,3-benzothiazol-2-yl]-3,3,5-trimethylcyclohexane-1-carboxamide] was tested. Which MIC did it give?
**A.** 2 to 32 µg/mL (≈ 5.79 to 92.6 µM)

**Q.** How did the MIC turn out when `CCOc1ccc2nc(NC(=O)C34CC5CC(C)(CC(C)(C5)C3)C4)sc2c1` [Example 111, N-(6-ethoxy-1,3-benzothiazol-2-yl)-3,5-dimethyladamantane-1-carboxamide] was run?
**A.** 2 to 32 µg/mL (≈ 5.2 to 83.2 µM)

**Q.** `CC12CC3CC(C)(C1)CC(C(=O)Nc1nc4cc(Cl)ccc4o1)(C3)C2` [Example 140, N-(5-chloro-1,3-benzoxazol-2-yl)-3,5-dimethyladamantane-1-carboxamide] was tested. Which MIC did it give?
**A.** 2 to 32 µg/mL (≈ 5.57 to 89.2 µM)

**Q.** `CC12CC3CC(C)(C1)CC(C(=O)Nc1nc4ccc(F)cc4[nH]1)(C3)C2` [Example 120, N-(6-fluoro-1H-1,3-benzodiazol-2-yl)-3,5-dimethyladamantane-1-carboxamide] was tested. Which MIC did it give?
**A.** 2 to 32 µg/mL (≈ 5.86 to 93.7 µM)

**Q.** For `CC12CCCC(C(=O)Nc3nc4ccc(C(F)(F)F)cc4o3)(CCC1)C2` [Example 132, 5-methyl-N-[6-(trifluoromethyl)-1,3-benzoxazol-2-yl]bicyclo[3.3.1]nonane-1-carboxamide], which MIC is on record?
**A.** 2 to 32 µg/mL (≈ 5.46 to 87.3 µM)

**Q.** `O=C(Nc1nc2c(F)cc(F)cc2s1)C1CCCCCC1` [Example 139, N-(4,6-difluoro-1,3-benzothiazol-2-yl)cycloheptanecarboxamide] was tested. Which MIC did it give?
**A.** 2 to 32 µg/mL (≈ 6.44 to 103 µM)

**Q.** How did the MIC turn out when `CC12CC3CC(C)(C1)CC(C(=O)Nc1nc4ccccc4o1)(C3)C2` [Example 147, N-(1,3-benzoxazol-2-yl)-3,5-dimethyladamantane-1-carboxamide] was run?
**A.** 2 to 32 µg/mL (≈ 6.16 to 98.6 µM)

**Q.** For `Cc1cccc2sc(NC(=O)C3CCCC(C)C3)nc12` (stereo not shown) [Example 180, 3-methyl-N-(4-methyl-1,3-benzothiazol-2-yl)cyclohexane-1-carboxamide], which MIC is on record?
**A.** 2 to 32 µg/mL (≈ 6.93 to 111 µM)

**Q.** How did the MIC turn out when `C[C@]1(C(=O)Nc2nc3ccc(OC(F)(F)F)cc3s2)C[C@@H]2C=C[C@H]1C2` [Example 129, (1R,2S,4R)-2-methyl-N-[6-(trifluoromethoxy)-1,3-benzothiazol-2-yl]bicyclo[2.2.1]hept-5-ene-2-carboxamide] was run?
**A.** 2 to 32 µg/mL (≈ 5.43 to 86.9 µM)

**Q.** `CC1(C(=O)Nc2nc3ccc(Cl)cc3s2)CCCCC1` [Example 135, N-(6-chloro-1,3-benzothiazol-2-yl)-1-methylcyclohexane-1-carboxamide] was tested. Which MIC did it give?
**A.** 2 to 32 µg/mL (≈ 6.48 to 104 µM)

**Q.** Which MIC does the source give for `CC1CC(C(=O)Nc2nc3c(F)cccc3s2)CC(C)(C)C1` (stereo not shown) [Example 121, N-(4-fluoro-1,3-benzothiazol-2-yl)-3,3,5-trimethylcyclohexane-1-carboxamide] here?
**A.** 2 to 32 µg/mL (≈ 6.24 to 99.9 µM)

**Q.** Which MIC does the source give for `CC1(C(=O)Nc2nc3ccc(OC(F)(F)F)cc3s2)CC2CCC1C2` (stereo not shown) [Example 104, 2-methyl-N-[6-(trifluoromethoxy)-1,3-benzothiazol-2-yl]bicyclo[2.2.1]heptane-2-carboxamide] here?
**A.** 2 to 32 µg/mL (≈ 5.4 to 86.4 µM)

**Q.** With `CC1CC(C(=O)Nc2nc3ccc(SC(F)(F)F)cc3s2)CC(C)(C)C1` (stereo not shown) [Example 177, 3,3,5-trimethyl-N-{6-[(trifluoromethyl)sulfanyl]-1,3-benzothiazol-2-yl}cyclohexane-1-carboxamide] as the compound, how does the MIC read?
**A.** 2 to 32 µg/mL (≈ 4.97 to 79.5 µM)

**Q.** How did the MIC turn out when `CC1CCCCC1C(=O)Nc1nc2ccccc2s1` (stereo not shown) [Example 166, N-(1,3-benzothiazol-2-yl)-2-methylcyclohexane-1-carboxamide] was run?
**A.** 2 to 32 µg/mL (≈ 7.29 to 117 µM)

**Q.** For `CC12CC3CC(C)(C1)CC(C(=O)Nc1nc4c(F)cccc4s1)(C3)C2` [Example 122, N-(4-fluoro-1,3-benzothiazol-2-yl)-3,5-dimethyladamantane-1-carboxamide], which MIC is on record?
**A.** 2 to 32 µg/mL (≈ 5.58 to 89.3 µM)

**Q.** Which MIC does the source give for `CC1(C(=O)Nc2nc3c(F)cc(F)cc3s2)CCCCC1` [Example 171, N-(4,6-difluoro-1,3-benzothiazol-2-yl)-1-methylcyclohexane-1-carboxamide] here?
**A.** 2 to 32 µg/mL (≈ 6.44 to 103 µM)

**Q.** `O=C(Nc1nc2ccc(C(F)(F)F)cc2s1)C1CCCC(C(F)(F)F)C1` (stereo not shown) [Example 126, 3-(trifluoromethyl)-N-[6-(trifluoromethyl)-1,3-benzothiazol-2-yl]cyclohexane-1-carboxamide] was tested. Which MIC did it give?
**A.** 2 to 32 µg/mL (≈ 5.05 to 80.7 µM)

**Q.** How did the MIC turn out when `CC1CC(C(=O)Nc2nc3cc(Cl)cc(Cl)c3o2)CC(C)(C)C1` (stereo not shown) [Example 142, N-(5,7-dichloro-1,3-benzoxazol-2-yl)-3,3,5-trimethylcyclohexane-1-carboxamide] was run?
**A.** 2 to 32 µg/mL (≈ 5.63 to 90.1 µM)

**Q.** How did the MIC turn out when `CC1CC(C(=O)Nc2nc3c(Cl)cccc3s2)CC(C)(C)C1` (stereo not shown) [Example 179, N-(4-chloro-1,3-benzothiazol-2-yl)-3,3,5-trimethylcyclohexane-1-carboxamide] was run?
**A.** 2 to 32 µg/mL (≈ 5.94 to 95 µM)
